Assay results published in patent publication US9695195B2, “5-HT3 receptor antagonists” (Takeda Pharmaceutical Company Limited, priority 2012, dated 2017).
Counter-ions that a name gives are not always drawn.

Biological target: 5HT3a receptor (Homo sapiens (Human), UniProt P46098)
Test: Inhibition of Ca flux activity of 5HT3 in vitro assay
Assay type: cell-based
Conditions: 5HT3a expressed in HEK-293T cells; 5HT 216 nM; approximate values
Description: The 5HT3 antagonist activity of the compounds of the invention was determined by measuring the ability of the compounds to inhibit the calcium flux activity of […] receptor expressed in HEK-293T cells. HEK-293T cells were transfected with the 5HT3a expression construct using Xtreme Gene 9 (Roche) in 150 mm tissue culture treated plates and incubated for 24 hours at 37° C. Cells were then split and plated at a density of 60K cells/well in poly-lysine coated, black 96-well plates with clear bottoms (BD BioSciences) and incubated overnight at 37° C. Growth media was removed and cells loaded with 200 uL calcium indicator dye in HBSS containing 20 mM HEPES (Calcium 5 Assay kit, Molecular Devices) and incubated at 37° C. for 1 hour. While cells were incubating, the 10× antagonist and agonist/antagonist addition plates were made. For 10× antagonist plate: half log serial dilutions (final concentrations range from 10^−7 through 10^−10 with the bottom well a negative, no ligand control) were made from test compounds in DMSO at a 1000× concentration and then diluted to 10× in HBSS/20 mM HEPES. For addition plate: 5HT was diluted to 100× in HBSS/20 mM HEPES (final concentration in the assay-216 nM) and 15 uL was added to each well of the addition plate, 15 uL of 10× compound was also added to the addition plate, and finally 120 uL of HBSS/20 mM HEPES (for a total of 150 uL). Cells were then removed from the incubator and equilibrated to room temperature for 10 minutes, then 22.5 uL of 10× test compounds were added in triplicate to the plates and incubated at room temperature for 10 minutes (Tropisetron was used as a positive control in every assay). Test plate and addition plate were loaded into the FlexStation III (Molecular Devices), and using the fluidics, 22.5 uL compound additions were made (at t=˜17 seconds), and fluorescence was measured for 90 seconds, reading every 2.2 seconds. Data sets were analyzed as max minus min using Software Max Pro (Molecular Devices). IC50 curves were generated using non-linear regression in GraphPad Prism.

5HT3a receptor, sequence (P46098 24-478): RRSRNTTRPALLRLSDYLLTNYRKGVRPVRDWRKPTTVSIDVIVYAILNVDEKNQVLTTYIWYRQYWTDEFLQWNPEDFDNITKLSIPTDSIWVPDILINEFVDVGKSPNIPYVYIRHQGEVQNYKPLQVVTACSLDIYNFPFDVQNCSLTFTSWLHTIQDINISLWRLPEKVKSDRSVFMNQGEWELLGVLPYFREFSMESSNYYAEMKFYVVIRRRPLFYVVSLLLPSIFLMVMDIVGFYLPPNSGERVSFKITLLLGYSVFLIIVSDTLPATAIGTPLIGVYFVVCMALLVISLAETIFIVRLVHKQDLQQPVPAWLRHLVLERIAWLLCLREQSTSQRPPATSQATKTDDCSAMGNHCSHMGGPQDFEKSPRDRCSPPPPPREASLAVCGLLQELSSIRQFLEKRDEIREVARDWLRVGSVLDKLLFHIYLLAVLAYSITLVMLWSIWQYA

Row | SMILES | IC50 [nM]
1 | CN1[C@@H]2COC[C@H]1CC(OC(=O)c1cn(-c3ncccn3)c3ccccc13)C2 (stereo partly drawn) [Compound 188, (1R,5S,7S)-9-methyl-3-oxa-9-azabicyclo[3.3.1]nonan-7-yl 1-(pyrimidin-2-yl)-1H-indole-3-carboxylate] | 1.75
2 | O=C(OC1CC2COCC(C1)N2)c1cn(-c2ccns2)c2ccccc12 [Compound 155, (1R,5S,7s)-3-oxa-9-aza-bicyclo[3.3.1]nonan-7-yl 1-(iso-thiazol-5-yl)-1H-indole-3-carboxylate, 2,2,2-trifluoroacetic acid salt] | 1.26
3 | CN1[C@@H]2COC[C@H]1CC(OC(=O)c1cn(-c3cnc(F)cn3)c3ccccc13)C2 (stereo partly drawn) [Compound 184, (1R,5S,7S)-9-methyl-3-oxa-9-aza-bicyclo[3.3.1]nonan-7-yl 1-(5-fluoropyrazin-2-yl)-1H-indole-3-carboxylate] | 1.25
4 | CN1[C@@H]2CC[C@H]1CC(OC(=O)c1cn(CC(F)(F)F)c3ccc(F)cc13)C2 (stereo partly drawn) [Compound 1, (1R,3R,5S)-8-methyl-8-aza-bicyclo[3.2.1]octan-3-yl 5-fluoro-1-(2,2,2-trifluoro-ethyl)-1H-indole-3-carboxylate; 2,2,2-trifluoroacetate] | 2.13
5 | O=C(OC1CC2COCC(C1)N2)c1cn(-c2ccsn2)c2ccccc12 [Compound 145, (1R,5S,7s)-3-oxa-9-aza-bicyclo[3.3.1]nonan-7-yl 1-(iso-thiazol-3-yl)-1H-indole-3-carboxylate, 2,2,2-trifluoroacetic acid salt] | 2.71
6 | O=C(OC1C[C@H]2COC[C@@H](C1)N2CCF)c1cn(CC(F)F)c2ccc(F)cc12 (stereo partly drawn) [Compound 33, (1R,5S,7S)-9-(2-fluoroethyl)-3-oxa-9-azabicyclo[3.3.1] nonan-7-yl 1-(2,2-difluoroethyl)-5-fluoro-1H-indole-3-carboxylate, 2,2,2-trifluoroacetate] | 14.4
7 | O=C(NC1CC2COCC(C1)N2)c1cn(CC(F)(F)F)c2ccc(F)cc12 [Compound 6, N-((1R,5S,7S)-3-oxa-9-aza-bicyclo[3.3.1]nonan-7-yl)-5-fluoro-1-(2,2,2-trifluoro-ethyl)-1H-indole-3-carboxamide, 2,2,2-trifluoroacetate] | 2.33
8 | CN1[C@@H]2CC[C@H]1C[C@H](OC(=O)c1c3n(c4ccccc14)CCO3)C2 [Compound 28, (1R,3R,5S)-8-methyl-8-aza-bicyclo[3.2.1]octan-3-yl 2,3-dihydrooxazolo[3.2-a] indole-9-carboxylate, 2,2,2-trifluoroacetate] | 1.08
9 | CN1[C@@H]2CCC[C@H]1CC(OC(=O)c1cn(S(C)(=O)=O)c3ccc(F)cc13)C2 (stereo partly drawn) [Compound 34, (1R,3R,5S)-9-methyl-9-aza-bicyclo[3.3.1]nonan-3-yl 5-fluoro-1-(methylsulfonyl)-1H-indole-3-carboxylate, 2,2,2-trifluoroacetate] | 0.74
10 | CN1[C@@H]2CC[C@H]1C[C@H](OC(=O)c1cn(CC(F)F)c3ccc(F)cc13)C2 [Compound 27, (1R,3R,5S)-8-methyl-8-aza-bicyclo[3.2.1]octan-3-yl 1-(2,2-difluoroethyl)-5-fluoro-1H-indole-3-carboxylate, 2,2,2-trifluoroacetate] | 0.89
11 | N#CCn1cc(C(=O)OC2C[C@H]3COC[C@@H](C2)N3)c2ccccc21 (stereo partly drawn) [Compound 187, (1R,5S,7S)-3-oxa-9-aza-bicyclo[3.3.1]nonan-7-yl 1-(cyanomethyl)-1H-indole-3-carboxylate] | 1.18
12 | CN1[C@@H]2COC[C@H]1C[C@@H](OC(=O)c1cn(CC(F)(F)F)c3ccc(F)cc13)C2 [Compound 32, (1R,5S,7S)-9-methyl-3-oxa-9-azabicyclo[3.3.1]nonan-7-yl 5-fluoro-1-(2,2,2-trifluoroethyl)-1H-indole-3-carboxylate, 2,2,2-trifluoroacetate] | 1.38
13 | CN1[C@@H]2COC[C@H]1CC(OC(=O)c1cn(-c3cnccn3)c3ccccc13)C2 (stereo partly drawn) [Compound 181, (1R,5S,7S)-9-methyl-3-oxa-9-azabicyclo[3.3.1]nonan-7-yl 1-(pyrazin-2-yl)-1H-indole-3-carboxylate] | 1.1
14 | CN1[C@@H]2COC[C@H]1C[C@@H](OC(=O)c1cn(-c3cncs3)c3ccccc13)C2 [Compound 183, (1R,5S,7S)-9-methyl-3-oxa-9-azabicyclo[3.3.1]nonan-7-yl 1-(thiazol-5-yl)-1H-indole-3-carboxylate] | 1.27
15 | CN1[C@@H]2COC[C@H]1CC(OC(=O)c1cn(-c3cncnc3)c3ccccc13)C2 (stereo partly drawn) [Compound 189, (1R,5S,7S)-9-methyl-3-oxa-9-azabicyclo[3.3.1]nonan-7-yl 1-(pyrimidin-5-yl)-1H-indole-3-carboxylate] | 0.46
16 | CN1[C@@H]2CCC[C@H]1CC(OC(=O)c1nn(S(C)(=O)=O)c3ccccc13)C2 (stereo partly drawn) [Compound 4, (1R,3R,5S)-9-methyl-9-aza-bicyclo[3.3.1]nonan-3-yl 1-(methylsulfonyl)-1H-indazole-3-carboxylate, 2,2,2-trifluoroacetate] | 1.4
17 | CN1[C@@H]2CCC[C@H]1CC(OC(=O)c1c(Cl)n(CCF)c3ccccc13)C2 (stereo partly drawn) [Compound 30, (1R,3R,5S)-9-methyl-9-aza-bicyclo[3.3.1]nonan-3-yl 2-chloro-1-(2-fluoroethyl)-1H-indole-3-carboxylate, 2,2,2-trifluoroacetate] | 0.2
18 | CN1[C@@H]2COC[C@H]1C[C@@H](OC(=O)c1cn(-c3ccc(F)nn3)c3ccccc13)C2 [Compound 137, (1R,5S,7s)-9-methyl-3-oxa-9-azabicyclo[3.3.1]nonan-7-yl 1-(6-fluoropyridazin-3-yl)-1H-indole-3-carboxylate] | 0.681
19 | O=C(OC1CC2CCC(C1)N2)c1cn(CC(F)(F)F)c2ccccc12 [Compound 14, (1R,3R,5S)-8-azabicyclo[3.2.1] octan-3-yl 1-(2,2,2-trifluoroethyl)-1H-indole-3-carboxylate, 2,2,2-trifluoroacetate] | 3.71
20 | CN1[C@@H]2CC[C@H]1CC(OC(=O)c1cn(S(C)(=O)=O)c3ccccc13)C2 (stereo partly drawn) [Compound 26, (1R,3R,5S)-8-methyl-8-aza-bicyclo[3.2.1]octan-3-yl 1-(methylsulfonyl)-1H-indole-3-carboxylate, 2,2,2-trifluoro-acetate] | 0.54
21 | CN1[C@@H]2CC[C@H]1CC(NC(=O)c1cn(S(C)(=O)=O)c3ccc(F)cc13)C2 (stereo partly drawn) [Compound 18, 5-fluoro-N-((1R,3R,5S)-8-methyl-8-azabicyclo[3.2.1]octan-3-yl)-1-(methylsulfonyl)-1H-indole-3-carboxamide, 2,2,2-trifluoroacetate] | 4.06
22 | CN1[C@@H]2CC[C@H]1CC(OC(=O)c1nn(CC(F)(F)F)c3ccccc13)C2 (stereo partly drawn) [Compound 17, (1R,3R,5S)-8-methyl-8-aza-bicyclo[3.2.1]octan-3-yl 1-(2,2,2-trifluoroethyl)-1H-indazole-3-carboxylate, 2,2,2-trifluoroacetate] | 4.39
23 | CN1[C@@H]2CC[C@H]1C[C@@H](OC(=O)c1c(Cl)n(S(C)(=O)=O)c3ccccc13)C2 [Compound 13, (1R,3R,5S)-8-methyl-8-aza-bicyclo[3.2.1]octan-3-yl 2-chloro-1-(methylsulfonyl)-1H-indole-3-carboxylate, 2,2,2-trifluoroacetate] | 0.93
24 | Cc1c(C(=O)OC2C[C@H]3CC[C@@H](C2)N3C)c2ccccc2n1CCF (stereo partly drawn) [Compound 15, (1R,3R,5S)-8-methyl-8-aza-bicyclo[3.2.1]octan-3-yl 1-(2-fluoroethyl)-2-methyl-1H-indole-3-carboxylate, 2,2,2-trifluoroacetate] | 0.53
25 | CN1[C@@H]2COC[C@H]1CC(OC(=O)c1cn(-c3ccsn3)c3ccccc13)C2 (stereo partly drawn) [Compound 182, (1R,5S,7S)-9-methyl-3-oxa-9-azabicyclo[3.3.1]nonan-7-yl 1-(isothiazol-3-yl)-1H-indole-3-carboxylate] | 1.62
26 | CN1[C@@H]2CCC[C@H]1CC(OC(=O)c1nn(CCF)c3ccccc13)C2 (stereo partly drawn) [Compound 16, (1R,3R,5S)-9-methyl-9-aza-bicyclo[3.3.1]nonan-3-yl 1-(2-fluoroethyl)-1H-indazole-3-carboxylate, 2,2,2-trifluoro-acetate; 2,2,2-trifluoroacetate] | 3.25
27 | CS(=O)(=O)n1cc(C(=O)O[C@H]2C[C@H]3COC[C@@H](C2)N3)c2cc(F)ccc21 [Compound 19, (1R,5S,7S)-3-oxa-9-aza-bicyclo[3.3.1]nonan-7-yl 5-fluoro-1-(methylsulfonyl)-1H-indole-3-carboxylate, 2,2,2-trifluoroacetate] | 7.72
28 | O=C(OC1C[C@H]2COC[C@@H](C1)N2)c1cn(-c2ncccn2)c2ccccc12 (stereo partly drawn) [Compound 25, (1R,5S,7S)-3-oxa-9-aza-bicyclo[3.3.1]nonan-7-yl 1-(pyrimidin-2-yl)-1H-indole-3-carboxylate, 2,2,2-trifluoro-acetate] | 3.88
